According to ChEMBL document CHEMBL4715862, “Anti-HIV Tigliane Diterpenoids from Wikstroemia scytophylla” (J Nat Prod, 2020):

Legend:
[1] = test system: Human immunodeficiency virus 1; assay: Antiviral activity against HIV-1 NL4-3 infected in human MT4 cells assessed as reduction in p24 gag protein expression incubated for 48 hrs by ELISA; type: functional, organism-based; conditions: Human immunodeficiency virus 1, NL4-3, MT4, 48 h
[2] = Cytotoxicity against human MT4 cells assessed as reduction in cell viability after 48 hrs by CellTiter-Glo assay; type: cell-based
[3] = Selectivity ratio of CC50 for cytotoxicity against human MT4 cells to IC50 for antiviral activity against HIV-1 NL4-3 infected in human MT4 cells; type: toxicity, cell-based; conditions: read-out: Ratio CC50/IC50

SMILES	IC50 [1] [nM]	CC50 at 48 h [2] [nM]	selectivity ratio [3]
CCCCCCCC(=O)O[C@@]12[C@H](OC(=O)c3ccccc3)[C@@H](C)[C@@]3(O)[C@@H](C(=O)C(CO)=C[C@]4(O)C(=O)C(C)=C[C@@H]34)[C@@H]1C2(C)C	3.8	> 164	–
CCCCCCCC(=O)O[C@@]12[C@H](OC(=O)c3ccccc3)[C@@H](C)[C@@]3(O)[C@H]([C@@H]1C2(C)C)[C@@H](O)C(CO)=C[C@]1(O)C(=O)C(C)=C[C@@H]31	> 164	> 164	–
CCCCCCCC(=O)O[C@@]12[C@H](OC(=O)c3ccccc3)[C@@H](C)[C@@]3(O)C(=C[C@](O)(CO)C[C@]4(O)C(=O)C(C)=C[C@@H]34)[C@@H]1C2(C)C	> 164	> 164	–
C=C(C)[C@]12C[C@@H](COC(=O)c3ccccc3)[C@@]34O[C@]5(O[C@@H]1[C@@H]3[C@@H]1O[C@]1(CO)[C@@H](O)[C@@]1(O)[C@H]4[C@H]([C@H](C)[C@@H]1OC(=O)c1ccccc1)[C@H](C)CCCCCC[C@H]5O)O2	0.07	> 5	–
CCCCCCCC(=O)O[C@@]12[C@H](OC(=O)CCCCC)[C@@H](C)[C@@]3(O)[C@@H](C(=O)C(CO)=C[C@]4(O)C(=O)C(C)=C[C@@H]34)[C@@H]1C2(C)C	> 164	> 164	–
CCCCCCCC(=O)O[C@@]12[C@H](OC(=O)c3ccccc3)[C@@H](C)[C@]3(O)[C@@H]4C=C(C)C(=O)[C@@]4(O)[C@H](O)C(CO)=C[C@H]3[C@@H]1C2(C)C	12.8	> 164	–
CCCCCCCC(=O)O[C@@]12[C@H](OC(=O)c3ccccc3)[C@@H](C)[C@@]3(O)[C@H]([C@@H]1C2(C)C)[C@@H](OO)C(CO)=C[C@]1(O)C(=O)C(C)=C[C@@H]31	–	–	< 5
